Read-outs that look alike come from different tables or passages of the source.
Columns and labels:
[1] = tested on: German cockroach, Blattella germanica (L.); assay: Fumigant toxicity in sealed glass jar, German cockroach; type: in vivo; conditions: Blattella germanica, inhaled or nasal, 30-60 adult males
Procedure: (§1) As shown below, Table 1 depicts the toxicity of both monoiodinated and diiodinated hydrocarbons to both the German and the American cockroach after 1 hour of exposure.
(§2) Shown in Table 2 is the toxicity of both monoiodinated and diiodinated hydrocarbons to the German and American cockroach and the Cowpea weevil after 24 hours of exposure.
(§3) In this experiment both the insecticidal and nematicidal properties of iodinated hydrocarbons were compared. In determining the insecticidal properties of the iodinated hydrocarbons, both American (Periplaneta americana) and German (Blattella germanica) cockroaches were used. Groups of cockroaches were confined in 0.95-liter glass jars with a small cotton ball. Exactly 50 μl of a test chemical was applied to the cotton ball and the jar was sealed. Knockdown, defined as the inability to walk in a coordinated manner, and mortality were assessed every 15 minutes for the first hour and hourly thereafter for 8 hours and again after 24 hours.

[2] = tested on: American cockroach, Periplaneta americana (L.); assay: Fumigant toxicity in sealed glass jar, American cockroach; type: in vivo; conditions: Periplaneta americana, inhaled or nasal, 8-36 adult males
Procedure: as §1, §2, §3

[3] = tested on: Cowpea weevil, Callosobruchus maculatus (F.); assay: Fumigant toxicity, Cowpea weevil; type: in vivo; design: concentration or dose not given beside the values; conditions: 30 adults
Procedure: as §2

Heterodera glycines = assay: Greenhouse nematicide test, diiodinated C2-C8 hydrocarbons in infested field soil (Experiments 1 and 2); type: in vivo; conditions: rates ≧5.0 mg
Procedure: (§4) Additionally, the nematicidal properties of iodinated hydrocarbons were investigated in greenhouse experiments with field soil infested with Meloidogyne arenaria and Heterodera Glycines. Chemicals were added directly to infested solid at rates <100 mg/Kg soil. Treated soil was kept moist (approximately 60 percent field capacity) and uncovered for 7-10 days when samples were collected, and the pots were planted with ‘Brim’ soybean, Glycine max. […] 1,2-diiodoethane (C2), 1,3-diiodopropane (C3), 1,4-diiodobutane (C4), 1,5-diiodopentane (C5), 1,6-diiodohexane (C6), and […] were applied to soil rates of 2.5, 5.0, 7.5, and 10 mg/Kg soil. All rates of C2 and C8 were ineffective in reducing M. arenaria juvenile (J2) populations in preplant samples. This was also true for C2 and J2 populations of H. glycines; however, […] rates ≧5.0 mg suppressed J2 populations of H. glycines. […] H. glycines J2 numbers in final soil samples were generally inversely related to rates for C3-C8. […] Applications of C3-C6 to soil increased shoot weights in a manner directly related to dosages but only in a curvilinear pattern.
(§5) In this experiment, the nematicidal properties of various diiodinated hydrocarbons were compared. The nematicidal properties of diiodinated C2-C8 normal hydrocarbons was assessed in a greenhouse experiment with field soil infested with Meloidogyne arenaria [Ma] and Heterodera glycines [Hg]. 1,2-diiodoethane [C2], 1,3-diiodopropane [C3], 1,4-diiodobutane [C4], 1.5-diiodopentane [C5], 1,6-diiodohexane [C6] and 1,8-diiodooctane [C8] were applied to soil at rates of 2.5, 5.0, 7.5, and 10.0 mgs/kg soil. The potted soil was kept moist in a greenhouse for 10 days when preplant samples were collected for analysis, and the pots were planted with ‘Brim’ soybean [Glycine max]. After 7 weeks of growth, the plants were removed and final soil samples taken. Data was collected on weights of fresh roots and shoots, root galling by Ma, and numbers of nematodes in soil and roots. All rates of C2 and C8 were ineffective in reducing Ma juvenile [J2] populations in the preplant samples. This was also true for C2 and J2 populations of Hg; however, C8 rates ≧5.0 mg suppressed J2 populations of Hg. […] Hg J2 numbers in final soil samples were generally inversely related to rates for C3-C8. This pattern of suppression in J2 numbers was also applicable to Ma in the final soil samples but only for C3-C6. […] Applications of C3-C6 to soil increased shoot weights in a manner directly related to dosages but non-linear in pattern.

Meloidogyne arenaria [4] = assay: as above; type: in vivo; conditions: rates ≧5.0 mg
Procedure: as §4, §5

[5] = tested on: reniform nematode [Rotylenchulus reniformis]; assay: Greenhouse nematicide test in cotton field soil, covered and uncovered pots (Experiment 6, FIGS. 1-4); type: in vivo; conditions: for Control of the nematode in soil: covered and uncovered, all rates up to 12 mg per kg of soil
Excerpt: FIGS. 2 and 3 illustrate the effectiveness of the diiodoethane and diiodopropane in eliminating the nematode (Rotylenchulus reniformis) from a soil sample. The “x” axis on the top row illustrates the quantity of iodinated hydrocarbon in milligrams per kilogram of soil. The next two rows below the “x” axis indicate the number of nematodes per 100 milliliters of soil, which is also indicated on the “y” axis. In FIG. 2, 1,2-diiodoethane was applied to the soil both in a covered state and an uncovered state. […] This is believed to be so because of the volatility of 1,2 diiodoethane, wherein the cover slows down the rate at which the compound evaporates into the atmosphere.
In this experiment, the pesticidal and herbicidal properties of volatile, low molecular weight, iodinated hydrocarbons were investigated. The relative nematicidal efficacy of iodomethane [C1], 1,2-diiodoethane [C2], 1,3-diiodopropane [C3] and 1,4-diiodobutane [C4] was studied in greenhouse experiments with soil from a cotton field infested with the reniform nematode [Rotylenchulus reniformis]. The chemicals were obtained from Aldrich, Milwaukee, U.S.A. Emulsifiable concentrates of the compounds were prepared by dilution in acetone containing an emulsogen.
(§6) For each chemical, an aqueous emulsion with 0.2% [w/w] of the compound was prepared and was applied to soil at rates of 2, 4, 6, 8, 10, and 12 mgs a.i./Kg soil. The treated soil was mixed and transferred to 1L capacity 10-cm diameter cylindrical pots. Pots with untreated soil [control] and with treated soil were placed on a greenhouse bench in a randomized complete block design. Each treatment was represented by 14 replications [pots], one half of which were left uncovered, and the other 7 were covered with polyethylene plastic bags [approx. 1 mil thickness] retained with a rubber around the pots. Soil samples for nematological analysis [salad bowl incubation technique] were collected 7-10 days after application of the materials. […] In covered pots, applications of the material were particularly effective resulting in 100% kill with the 10 and 12 mg rates. All dosages of C3 and C4 eliminated the nematode in covered pots. […] In a greenhouse experiment of similar design to the nematicide experiments, the C3 and C4 emulsions were applied at rates of 2-20 mgs a.i./Kg soil to a soil infested with crabgrass [Digitaria sanguinalis], purple nutsedge [Cyperus rotundus], Jimson weed [Datura stramonium] and a variety of other weed species. All pots were covered, and the number of weeds were counted 7, 14 and 30 days after application of the chemicals.

[6] = tested on: crabgrass [Digitaria sanguinalis], purple nutsedge [Cyperus rotundus], Jimson weed [Datura stramonium] and a variety of other weed species; assay: Greenhouse herbicide test in weed-infested potted soil (Experiment 6, FIG. 6); type: in vivo; conditions: up to 20 mg per kg of soil; one week
Procedure: Illustrated in FIGS. 6 and 7 are the herbicidal properties of the present invention. In FIG. 6, 1,3-diiodopropane and 1,4-diiodobutane were added to a soil sample contained in a pot, wherein the number of weeds were counted at the end of a one week period. The top row of the “x” axis plots the amount in milligrams of iodinated hydrocarbon added per kilogram of soil. The two rows below the top row depict the number of weeds found after a week, which is also plotted on the “y” axis. […] It is inferred that greater dosages would eliminate an even greater number of weeds. FIG. 7 depicts similar results except that the weed controlled was only one variety: crabgrass. […] It is also inferred that dosages larger than 20 mg of iodinated hydrocarbons would further eliminate an even greater number of crabgrass plants.
as §6

[7] = tested on: German cockroach, Blattella germanica (L.); assay: Fumigant toxicity in sealed glass jar, German cockroach; conditions: in vivo
[8] = tested on: American (Periplaneta americana) and German (Blattella germanica) cockroaches; assay: Knockdown and mortality of cockroaches in sealed jar (both species); type: in vivo; conditions: 50 μl on cotton ball in sealed 0.95-liter jar; for Knockdown of cockroaches: within 1 hour after treatment
Procedure: as §3, with “sealed.” for “sealed. Knockdown, defined as the inability to walk in a coordinated manner, and mortality were assessed every 15 minutes for the first hour and hourly thereafter for 8 hours and again after 24 hours.”

[9] = tested on: cyst [Heterodera glycines]; assay: Greenhouse nematicide test, iodinated C1-C3 hydrocarbons (Experiment 4); type: in vivo
Procedure: (§7) In this experiment, the nematicidal properties of low molecular weight iodinated hydrocarbons were investigated. The nematicidal properties of iodinated C1-C3 hydrocarbons were evaluated in greenhouse experiments with field soil infested with root-knot [Meloidogyne arenaria] and cyst [Heterodera glycines] nematodes. lodomethane, di-iodomethane, iodoethane, di-iodoethane, and 1-iodopropane were added to soil at rates of 0.1, 0.2 and 0.4 ml/kg soil.
(§8) The treated soil was kept moist for 10 days when soil samples were taken for nematode analysis and ‘Brim’ soybean [Glycine max] planted. Soybeans were allowed to grow for 8 weeks and then were removed from the soil to determine plant growth, root-knot indices and the number of galls generated by M arenaria. […] All compounds except 1-iodopropane increased fresh shoot weight when applied at ≧0.1 ml/kg soil.

[10] = tested on: root-knot [Meloidogyne arenaria]; assay: as above; type: in vivo
Procedure: as §7, §8

Meloidogyne arenaria [11] = assay: Greenhouse nematicide test, iodomethane vs ethylene diiodide (Experiment 5); type: in vivo
Procedure: (§9) In this experiment, the nematotoxic properties of ethylene diiodide were compared to that of methyl iodide. The nematicidal efficacies of iodomethane [IM] and ethylene diiodide [EDI] were compared in a greenhouse experiment using field soil infested with Meloidogyne arenaria, Pratylenchus brachyurus, and Paratrichodorus christiei.
(§10) Each compound was added to soil at rates of 100, 200, 300 and 400 mg s/kg of soil. The soil was potted and kept moist for two weeks when it was planted with ‘Brim’ soybean after taking samples for nematological analyses. After eight weeks of growth, the plants were removed from the pots and soil samples taken. Data was collected on weights of fresh roots and shoots, general appearance of roots [root condition index] and root gall formation by M. arenaria. All EDI rates eliminated M. arenaria juveniles [J2] and populations of the other nematodes in the preplant samples; IM reduced J2 numbers by 50-70%, eliminated P. christiei with the 400 mg rate, but had no effect on P. brachyurus. […] The general appearance of roots was improved by EDI at rates ≦300 mg, but MI had no effect on the variable. […] M. arenaria J2 populations in roots were reduced by 60-70% by MI treatments, but the compound had no effect on root populations of P. brachyurus. MI had no effect on J2 populations in the final soil samples, although it suppressed P. christiei, by 50-70%.

[12] = tested on: Paratrichodorus christiei; assay: as above; type: in vivo
Procedure: as §9, §10

Pratylenchus brachyurus = assay: as above; type: in vivo
Procedure: as §9, §10

'Brim' soybean = assay: Soybean growth and root condition in treated soil (Experiment 5); type: in vivo; conditions: rates 100-400 mg/kg
Procedure: as §9, §10

[13] = 1 h exposure, read-out: % Mortality after 1 h exposure, German cockroach
[14] = 24 h exposure, read-out: % Mortality after 24 h exposure, German cockroach
[15] = 1 h exposure, read-out: % Mortality after 1 h exposure, American cockroach
[16] = 24 h exposure, read-out: % Mortality after 24 h exposure, American cockroach

## ICCCCI [1,4-diiodobutane]
[1]; [13]
  mortality at 50 µL/jar: 0%
[1]; [14]
  mortality at 50 µL/jar: 70%
[2]; [15]
  mortality at 50 µL/jar: 0%
[2]; [16]
  mortality at 50 µL/jar: 33%
[3]
  % Mortality after 24 h exposure, Cowpea weevil: 47%
Heterodera glycines
  H. glycines J2 populations in preplant samples: virtually eliminated
Meloidogyne arenaria [4]
  M. arenaria J2 populations in preplant samples: virtually eliminated
[5]; covered pots, all dosages (2-12 mgs a.i./Kg soil)
  Nematode in soil, covered pots: eliminated
[5]; uncovered and covered state
  Dose that eliminates the nematodes: about 10 mg per kg of soil
[5]; uncovered pots, 3 highest rates
  Mortality of the nematode: 100%
[6]
  Number of weeds found in the pots as the dosage is increased (FIG. 6): steady decline
[7]
  Repellency to German cockroaches: repellent

## ICI [diiodomethane]
[1]; [13]
  mortality at 50 µL/jar: 40%
[1]; [14]
  mortality at 50 µL/jar: 100%
[2]; [15]
  mortality at 50 µL/jar: 39%
[2]; [16]
  mortality at 50 µL/jar: 100%
[3]
  % Mortality after 24 h exposure, Cowpea weevil: 100%
[8]
  Time to 100 percent mortality of cockroaches: ≤ 4 h
  Knockdown of cockroaches: ≈ 40%
[9]; 10 days after application, all dosages (0.1, 0.2, 0.4 ml/kg soil)
  H. glycines J2 populations in soil: eliminated
[7]
  Repellency to German cockroaches: repellent

## CI [iodomethane, reference compound]
[1]; [13]
  mortality at 50 µL/jar: 100%
[1]; [14]
  mortality at 50 µL/jar: 100%
[2]; [15]
  mortality at 50 µL/jar: 100%
[2]; [16]
  mortality at 50 µL/jar: 100%
[3]
  % Mortality after 24 h exposure, Cowpea weevil: 100%
[8]
  Knockdown of cockroaches: 100%
[9]; 0.4 ml rate
  H. glycines J2 populations in soil: reduced
[9]; rates lower than 0.4 ml
  H. glycines J2 populations in soil: ineffective
[10]; 0.4 ml rate
  Root-knot nematode juveniles in soil: eliminated
[10]; applied at ≧0.2 ml/kg soil
  Gall formation by M. arenaria: Significant suppression
[10]; rates lower than 0.4 ml
  Root-knot nematode juveniles in soil: ineffective
Meloidogyne arenaria [11]; after eight weeks of growth
  Reduction of M. arenaria J2 populations in roots: 60-70%
Meloidogyne arenaria [11]; final soil samples
  J2 populations in the final soil samples: no effect
Meloidogyne arenaria [11]; rates 100-400 mg/kg of soil
  Reduction of M. arenaria J2 numbers in preplant samples: 50-70%
Meloidogyne arenaria [11]; soybean after eight weeks
  Galls in roots of plants from treated soil (M. arenaria): significant numbers
[12]; 400 mg rate
  P. christiei populations in preplant samples: eliminated
[12]; final soil samples
  Suppression of P. christiei in final soil samples: 50-70%
Pratylenchus brachyurus; after eight weeks of growth
  Root populations of P. brachyurus: no effect
Pratylenchus brachyurus; rates 100-400 mg/kg of soil
  P. brachyurus populations in preplant samples: no effect
'Brim' soybean
  General appearance of roots [root condition index]: no effect
[5]; listed as C1
  Control of the nematode in soil: failed to control
[5]; listed as methyl iodide
  Control of the nematode in soil: ineffective
